Laboratory results: ChEMBL document CHEMBL4610062, “Cytotoxic and non-cytotoxic cardiac glycosides isolated from the combined flowers, leaves, and twigs of Streblus asper” (Bioorg Med Chem, 2020)

Assays:
[1] = Inhibition of Sodium/potassium-transporting ATPase in porcine cerebral cortex using ATP as substrate incubated for 15 mins by ADP-Glo Max Assay; design: species or system Sus scrofa
HT-29 = experiment: Cytotoxicity against human HT-29 cells assessed as inhibition of cell viability incubated for 72 hrs by MTS assay; assay type: functional, cell-based; conditions: HT-29, 72 h
OVCAR-3 = experiment: Cytotoxicity against human OVCAR3 cells assessed as inhibition of cell viability incubated for 72 hrs by MTS assay; assay type: functional, cell-based; conditions: OVCAR-3, 72 h
[2] = Cytotoxicity against human MDA-MB-435 cells assessed as inhibition of cell viability incubated for 72 hrs by MTS assay

CO[C@H]1[C@H](O[C@H]2CC[C@]3(C=O)[C@H]4CC[C@]5(C)[C@](O)(C6=CC(=O)OC6)CC[C@]5(O)[C@@H]4CC[C@]3(O)C2)O[C@H](C)[C@H](O)[C@@H]1OC
IC50 [1]: 232 µM
IC50 (HT-29): > 20 µM
IC50 (OVCAR-3): > 20 µM
IC50 [2]: > 20 µM

CO[C@H]1[C@H](O[C@H]2CC[C@]3(C=O)[C@H]4CC[C@]5(C)[C@@H]6CC[C@]5(O[C@H]5OC(=O)C[C@H]56)[C@@H]4CC[C@]3(O)C2)O[C@H](C)[C@H](O)[C@@H]1OC
IC50 (HT-29): > 20 µM
IC50 (OVCAR-3): > 20 µM
IC50 [2]: > 20 µM

C[C@H]1O[C@@H](O[C@H]2[C@@H](O)C[C@H](O[C@H]3[C@@H](O)C[C@H](O[C@H]4CC[C@@]5(C)[C@H](CC[C@@H]6[C@@H]5CC[C@]5(C)[C@@H](C7=CC(=O)OC7)CC[C@]65O)C4)O[C@@H]3C)O[C@@H]2C)C[C@H](O)[C@@H]1O [DIGITOXIN]
IC50 [1]: 0.127 µM

CC(=O)O[C@H]1C(=O)[C@@]2(C)[C@H]([C@H](OC(=O)c3ccccc3)[C@]3(O)C[C@H](OC(=O)[C@H](O)[C@@H](NC(=O)c4ccccc4)c4ccccc4)C(C)=C1C3(C)C)[C@]1(OC(C)=O)CO[C@@H]1C[C@@H]2O [PACLITAXEL]
IC50 [2]: 0.0015 µM
